Assay results published in US12465472B2, “Methods of insect control for an animal, products thereof and methods for their preparation” (priority 2023, dated 2025).

Legend:
[1] = tested on: Hermetia illucens larvae; experiment: Maggot Inhibitory Assay (MIA) with solutions of insecticide or lidocaine infused into wet chicken feed (Example 3); assay type: in vivo; settings: for insecticide or repellant activity as demonstrated by weight loss and maggot death: solution or neat liquid mixed into wet chicken feed, 5 larvae per dish, ~30 °C
Description: Determination of anti-myiasis activity by solutions of insecticide, or a lidocaine solution, was studied by Maggot Inhibitory Assay (MIA).
Seven (7) Test and Control Articles: Wet chicken feed (positive control), Tetrahydrafuran infused feed (THF; carrier control), Isopropyl Myristate infused feed (IPM; permeation enhancer control), Lidocaine solution infused feed (LD), Ivermectin infused feed (Iver), Imidacloprid infused feed (IMI), Spinosad infused feed (Spin).
One (1) test organism: Hermetia illucens larvae, “medium size” 3rd instar feeding (crop-full), mean weight 45-60 mg.
• Contact Time: 7 Days • Contact Temperature: 30±2° C. Test Method Overview: See FIG. 10 for Diagrammatic Overview.
Fresh wet chicken feed (WCF) and Hermetia illucens larvae (3rd instar feeding (crop-full) mean weight 45-60 mg) were obtained within 48 hours of the start of the testing. A small (60 mm diameter) petri dish served as the test container for each replicate. Solutions of the test substances were added onto the fresh WCF, and then the WCF with solution was placed into the center of the container and weighed. The POS control utilized an approximately similar-sized sample of fresh WCF, without any solution being added. Five (5) larvae were placed on each test and control article infused the fresh WCF. The lid was placed on the petri dish and the dish was wrapped in parafilm. The test and control containers were kept in an incubator at ˜30° C. temperature, in the dark. Larvae were observed daily for up to two (2) weeks, noting motility and pupation.
A portion of the solution was retained in a sealed glass vial for possible QA/QC. The WCF sample with solution added was mixed thoroughly and left in a fume hood for up to 72 hours to let THE evaporate off.
Test and control containers had about 2.0 g of test solution infused WCF placed into the center of the wetted filter paper.
Each test and control article were prepared in the individual 60 mm petri dishes in triplicate as described, >48 hours before study start. Five (5) larvae were weighed as a group and recorded for each test and control article. The lid was placed on the petri fish and this was wrapped in parafilm, as described. The test and control containers were kept in the incubator at temperature ˜30° C. in the dark. Larvae are observed daily up to two weeks, noting observations on food consumption, weight and pupation.
The weight of the 5 larvae in each assay replicate were determined and recorded by: (a) removing the lid and weighing the container without the lid (larvae+WCF+container); and (b) taring the scale and gently placing the 5 larvae into the lid and recording the total weight.
The results are shown in FIG. 11 as weight gain per maggot over time. At time 0, 5 maggots were placed into each of 3 pre-weighed petri dishes WCF mixed with the following, as described: nothing (OTS), Tetrahydrofuran (THF), Isopropyl Myristate (IPM), Lidocaine (LD), Ivermectin (Iver), Imidacloprid (IMI), or Spinosad (Spin). At each indicated time point, the weight of maggots was recorded and divided by the number of maggots per dish to calculate the weight per maggot. The weight per maggot at time 0 was then subtracted from that at each time point to calculate the weight gain per maggot. Bars represent the mean±standard deviation of 3 replicate petri dishes. In FIG. 11, statistical significance for each solution, relative to the OTS control, was determined using a repeated measures mixed effects model and each petri dish as the experimental unit (fixed effects were time, solution, and time×solution interaction; random effects were individual petri dishes and residuals); p-values were corrected for multiple comparisons with Dunnett's test. *, p<0.05; **, p<0.01; ***, p<0.001; ****, p<0.0001.

[2] = tested on: Hermetia illucens larvae; experiment: Maggot Inhibitory Assay (MIA) with ivermectin and lidocaine bands, unused or previously affixed to Holstein calves (Example 4); assay type: in vivo; settings: positive control solution (1.31 g in 2.35 g THF) in wet chicken feed
Description: Evaluation of duration of efficacy of anti-myiasis activity by elastomeric bands loaded/infused with insecticide, with or without an active agent for the topical treatment of pain, was studied via ex vivo tissue and band collection and using Maggot Inhibitory Assay (MIA).
Experimental goal: The aim of this experiment was to assess the long-term function of elastomeric bands infused with insecticide, with or without lidocaine, to inhibit the growth of larvae using the novel MIA test disclosed herein, by evaluating the function of ex vivo tissue biopsies taken from scrotal tissue and drug-infused elastomeric bands which were previously placed on Holstein calves for various time periods (3, 7, 14, 21 and 30 days). The protocol used and presented here is based on published literature (Kotze et al., (2022) “Resistance to dicyclanil and imidacloprid in the sheep blowfly, Lucilia cuprina, in Australia”, Pest Manag Sci, 78:4195-4206).
Ivermectin control: A solution of ivermectin was prepared as a positive control (1.31 g ivermectin into 2.35 g of THF). (n=3)
Exposed ILLB: Elastomeric bands infused with ivermectin and lidocaine that were affixed to scrotal sites and removed at each time point. (n=3×5 experiments=15) […]
Animals were randomly allocated to the study. […] Animal IDs and treatment codes were recorded. […] Animals were monitored for any adverse effects. […]

| Molecule | insecticide or repellant activity as demonstrated by weight loss and maggot death [1] | activity as an insecticide compared with commercial insecticides (ivermectin, imidacloprid, spinosad) ([1]; lidocaine in solution and infused into an elastomeric band) | maggot weight change [2] |
| --- | --- | --- | --- |
| C1CCOC1 [Tetrahydrofuran] | no insecticide or repellant activity | – | – |
| O=[N+]([O-])NC1=NCCN1Cc1ccc(Cl)nc1 [imidacloprid] | effective insecticide or repellant activity | – | – |
| CCCCCCCCCCCCCC(=O)OC(C)C [isopropyl myristate] | no insecticide or repellant activity | – | – |
| CCN(CC)CC(=O)Nc1c(C)cccc1C [lidocaine solution, lidocaine] | effective insecticide or repellant activity | equivalent to commercial insecticides | – |
| ivermectin | effective insecticide or repellant activity | – | a decline or no weight gain |
| spinosad | effective insecticide or repellant activity | – | – |
